Data set [1] is described as follows: Biodistribution 1 h p.i. in AR42J xenograft bearing CD1 nu/nu mice. The data set is classed as in vivo. The following applies: female, mouse, intravenous, total radioactivity, average ± Stdev. Here is the method:
(§1) The 8-week-old female CD1 nu/nu mice were purchased from Charles River (Sulzfeld, Germany). Animal experiments were conducted according to general animal welfare regulations (German animal protection act, as amended on 18.05.2018, Art. 141 G v. 29.3.2017 I 626, approval no. 55.2-1.2-54–2532-71-13 by the General Administration of the Free State of Bavaria; Swiss animal welfare regulations: Animal Welfare Act SR 455, license: Canton de Vaud, 3781 d). To establish tumor xenografts, AR42J cells (5 × 10^6 cells in 100 µl serum-free culture medium) were inoculated subcutaneously onto the shoulder. Mice were used for experiments when tumors had grown to a diameter of 5–9 mm (7–15 days after inoculation).
Approximately 0.5–2.5 MBq (0.05–0.20 nmol) of the ^18F-labeled ligands were injected into the tail vein of AR42J xenograft-bearing mice under isoflurane anesthesia (1.5% alveolar concentration). The mice were sacrificed 1 h post injection (n = 3–5). Organs were removed, weighed, and the activity quantified (γ-counter).
An unpaired Welch’s t-test was applied using the GraphPad Prism software (version 10.1.2). Standard deviations for tumor-to-organ (T/O) ratios were calculated using the rules of error propagation. Thresholds for statistical significance are defined as: p > 0.05 (ns); p ≤ 0.05 (*); p ≤ 0.01 (**); p ≤ 0.001 (***); p ≤ 0.0001 (****).

Another data set concerns AR42J cells. As to the kind of experiment: Internalization into AR42J cells relative to [125I]TOC. The settings on record: percentage compared to internal reference [125I]TOC. The data set is classed as cell-based. Here is the method:
AR42J cells (European Collection of Cell Cultures, Salisbury, UK) were grown in RPMI 1640 medium (with 2 mM, L-Glu, 10% FCS; v/v, 37 °C, 5% CO2), harvested 24 ± 2 h and seeded in 24-well poly-L-lysine plates (2.0 × 10^5 cells/well in 1 ml culture medium). After removal of the medium, the cells were washed with assay medium (300 µl, RPMI 1640 with 2 mM L-Glu, 5% BSA; v/v) and incubated in assay medium (200 µl, 15 min, 37 °C, 5% CO2). 25 µl of the ^18F-labeled ligand (20 nM) and [^125I]TOC (1 nM) in assay medium were added followed by either 25 µl TOC in assay medium (100 µM, competition experiment) or 25 µl of assay medium (internalization experiment). Cells were incubated at 37 °C for 15, 30, and 60 min (n = 3 per compound and time point), respectively, and chilled on ice. The supernatant was collected, the well washed with ice-cold RPMI 1640 (300 µl), and the two fractions combined (unbound ligand). The cells were incubated with acid wash solution (300 µl, 0.9% NaCl, 50 mM NaOAc/AcOH buffer, pH = 4.6, 15 min, 4 °C) to remove receptor-bound radioligand. The supernatant was collected, and the cells washed with 300 µl ice-cold acid wash solution (combined fractions: acid releasable, receptor bound ligand). The cells were lysed with NaOH solution (300 µl, 1 M, 15 min, RT), washed with 300 µl of the same solution, the two fractions combined (internalized ligand), and all activities quantified using a γ-counter.

Another data set concerns the target T1, SST2 (AR42J tumor) (Rattus norvegicus, UniProt P30680).
T1 construct: endogenous in cells; host or cells: AR42J xenograft in CD1 nu/nu mice
As to the kind of experiment: µPET/CT imaging with and without octreotide blocking in AR42J tumor bearing mice. The following applies: 60 min p.i. In kind it is in vivo. Here is the method:
as §1
4–5 MBq (0.3–0.5 nmol) of the ^68Ga-labeled SST2-ligand were injected into the tail vein of the xenograft-bearing mice. After 1 h, the mice were anesthetized (isoflurane: 1.5% alveolar concentration) and a PET image acquired (20 min, 32 × 32, 0.5 mm) using an Albira PET/SPECT/CT (Bruker Biospin Corporation, Woodbridge, CT, USA) followed by a CT scan (10 min). For blocking, 20 µg octreotide (0.8 mg/kg) were co-injected with the tracer. The images were reconstructed (Albira reconstructor, version NMI3.3) and analyzed (PMOD, V6.3.4, Bruker).

Data set [2] in a line: Lipophilicity LogDpH=7.4, shake flask method. The data set is classed as physicochemical. The settings on record: PBS (pH = 7.4)/n-octanol, mean of n = 8. Here is the method: The LogDpH=7.4 was determined using a modified shake flask method as previously described.
Data set [3] is described as follows: In-vitro stability in PBS, human serum and mouse liver extract. The following applies: 1 h, 37 °C, radio RP-HPLC. In kind it is in vitro ADME. Here is the method:
[^natF][^68Ga]rhTATE (ca. 5 MBq) was added to 500 µl samples of mouse liver extract, human serum, or PBS, respectively. The mixtures were incubated at 37 °C for 60 min. Workup of blood and liver extract samples was performed using cartridge purification (StrataX cartridge, 33 μm Polymeric Reversed Phase, 500 mg; preconditioning: 500 µl MeOH, 5 ml H2O; washing: 3 ml H2O; elution: ACN/H2O (0.1% TFA, 1:3, v/v, 300 µl). The resulting eluates were analyzed using radio RP-HPLC (Chromolith^R RP-18e; 100 × 4.6 mm; Merck KGaA; gradient of 10–90% ACN in H2O (0.1% TFA) within 8 min; flow rate: 1 ml/min). For cross-validation of HPLC results, radio RP-TLC was equally performed for all samples (1 M citric acid/NaOH, pH = 5.0; Rf: Product: 0.0–0.2.0.2; ^68Ga: 0.8–1.0.8.0).

For data set [4], the target named is T2, human serum albumin (HSA) (Homo sapiens, UniProt P02768).
T2 construct: purchased H13H-2433
As to the kind of experiment: HSA binding by high performance affinity chromatography (HPAC). In kind it is in vitro ADME. Here is the method:
For the determination of binding to human serum albumin (HSA) using HPLC, a Chiralpak HSA column (50 × 3 mm, 5 μm, H13H-2433) was used at a constant flow rate of 0.5 ml/min. The mobile phase (A: NH4OAc, 50 mM in H2O, pH 6.9 and B: iPrOH) was freshly prepared for each day.

Details of data set [5]: method as in PMID 10774879. The following applies: PBS (pH = 7.4)/n-octanol; cited from earlier work.
The mark [6] stands for this setting: adrenal glands, AR42J tumor-bearing CD1 nu/nu mice, read-out: Biodistribution Adrenal Glands.
Setting [7] is: blood, AR42J tumor-bearing CD1 nu/nu mice, read-out: Biodistribution Blood.
Setting [8] is: femur, AR42J tumor-bearing CD1 nu/nu mice, read-out: Biodistribution Femur.
[9] abbreviates: heart, AR42J tumor-bearing CD1 nu/nu mice, read-out: Biodistribution Heart.
Where [10] appears, read: intestine, AR42J tumor-bearing CD1 nu/nu mice, read-out: Biodistribution Intestine.
Where [11] appears, read: kidney, AR42J tumor-bearing CD1 nu/nu mice, read-out: Biodistribution Kidney.
[12] abbreviates: liver, AR42J tumor-bearing CD1 nu/nu mice, read-out: Biodistribution Liver.
The mark [13] stands for this setting: lung, AR42J tumor-bearing CD1 nu/nu mice, read-out: Biodistribution Lung.
The mark [14] stands for this setting: muscle, AR42J tumor-bearing CD1 nu/nu mice, read-out: Biodistribution Muscle.
The mark [15] stands for this setting: pancreas, AR42J tumor-bearing CD1 nu/nu mice, read-out: Biodistribution Pancreas.
Where [16] appears, read: spleen, AR42J tumor-bearing CD1 nu/nu mice, read-out: Biodistribution Spleen.
Where [17] appears, read: stomach, AR42J tumor-bearing CD1 nu/nu mice, read-out: Biodistribution Stomach.
[18] abbreviates: tumor (AR42J xenograft), AR42J xenograft, CD1 nu/nu mice, read-out: Biodistribution Tumor.
Where [19] appears, read: co-injection of 20 µg octreotide (0.8 mg/kg).
Where [20] appears, read: affinity to HSA by affinity chromatography (Chiralpak HSA column).

Where two headings read alike, the source gives them in different places.

T2 sequence (P02768 25-609): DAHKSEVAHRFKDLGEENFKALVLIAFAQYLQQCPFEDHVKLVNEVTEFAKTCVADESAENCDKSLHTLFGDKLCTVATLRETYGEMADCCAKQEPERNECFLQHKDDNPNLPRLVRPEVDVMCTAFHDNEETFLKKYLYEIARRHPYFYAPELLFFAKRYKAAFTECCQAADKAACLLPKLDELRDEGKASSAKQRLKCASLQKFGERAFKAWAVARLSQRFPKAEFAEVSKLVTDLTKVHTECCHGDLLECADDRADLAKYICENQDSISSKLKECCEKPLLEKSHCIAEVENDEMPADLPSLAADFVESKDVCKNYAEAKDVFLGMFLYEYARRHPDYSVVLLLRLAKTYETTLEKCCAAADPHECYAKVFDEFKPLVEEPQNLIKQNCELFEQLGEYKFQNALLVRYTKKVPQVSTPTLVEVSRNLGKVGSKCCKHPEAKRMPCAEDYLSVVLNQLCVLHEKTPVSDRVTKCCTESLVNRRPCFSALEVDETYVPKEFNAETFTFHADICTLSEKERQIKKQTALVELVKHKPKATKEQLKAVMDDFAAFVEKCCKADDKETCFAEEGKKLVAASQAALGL
T1 sequence (P30680 whole entry): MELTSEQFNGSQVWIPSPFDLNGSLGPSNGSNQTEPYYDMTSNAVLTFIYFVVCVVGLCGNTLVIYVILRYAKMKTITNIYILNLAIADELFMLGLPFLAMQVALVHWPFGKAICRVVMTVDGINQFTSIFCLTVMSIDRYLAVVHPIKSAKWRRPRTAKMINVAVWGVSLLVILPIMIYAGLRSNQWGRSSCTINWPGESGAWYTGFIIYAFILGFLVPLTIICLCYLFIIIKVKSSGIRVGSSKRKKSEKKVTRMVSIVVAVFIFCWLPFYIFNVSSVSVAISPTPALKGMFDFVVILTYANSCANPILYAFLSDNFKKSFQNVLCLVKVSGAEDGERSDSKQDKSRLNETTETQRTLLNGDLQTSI

For the compound `C[C@@H](O)[C@H](NC(=O)[C@@H]1CSSC[C@H](NC(=O)[C@@H](Cc2ccccc2)NC(=O)CN2CCN(CC(=O)O)CCN(CC(=O)NCCCC[C@@H](NC(=O)[C@@H](CNC(=O)C[N+](C)(C)Cc3ccc([Si](F)(C(C)(C)C)C(C)(C)C)cc3)NC(=O)[C@@H](CCC(=O)O)NC(=O)[C@@H](CCC(=O)O)NC(=O)[C@H](N)CCC(=O)O)C(=O)O)CCN(CC(=O)O)CC2)C(=O)N[C@@H](Cc2ccc(O)cc2)C(=O)N[C@H](Cc2c[nH]c3ccccc23)C(=O)N[C@@H](CCCCN)C(=O)N[C@@H]([C@@H](C)O)C(=O)N1)C(=O)O` [[^18/natF][^natGa]rhTATE2.5, metal not drawn], the tissue uptake at 1 h in data set [1] (setting [6]) was 1.52 ± 0.21 %ID/g; in data set [1] (setting [7]), 0.32 ± 0.11 %ID/g; in data set [1] (setting [8]), 1.05 ± 0.3 %ID/g; in data set [1] (setting [9]) it was 0.18 ± 0.05 %ID/g; in data set [1] (setting [10]) it was 1.3 ± 0.25 %ID/g; in data set [1] (setting [11]) it was 12.5 ± 3.5 %ID/g. The tissue uptake at 1 h in data set [1] (setting [12]) was 0.4 ± 0.12 %ID/g; in data set [1] (setting [13]), 2.73 ± 0.46 %ID/g; in data set [1] (setting [14]), 0.04 ± 0.02 %ID/g; in data set [1] (setting [15]) it was 11.5 ± 2.32 %ID/g; in data set [1] (setting [16]), 0.35 ± 0.07 %ID/g; in data set [1] (setting [17]), 6.46 ± 1 %ID/g. Besides, the tissue uptake at 1 h in data set [1] (setting [18]) stood at 18.6 ± 6.18 %ID/g. In the data set on AR42J cells, this compound had an Internalization of 357%. Moreover, on SST2 (AR42J tumor) (setting [19]), the “µPET kidney activity with SST2 blocking” value is recorded as “significantly reduced kidney activity”. Besides, at SST2 (AR42J tumor) (setting [19]), the “µPET tumor signal with SST2 blocking” value was “no detectable tumor signal”. Moreover, at SST2 (AR42J tumor) (control mouse, 4 MBq, 0.5 nmol tracer/mouse), the “µPET uptake in the tumor and kidneys” value is “intense”. Besides, the “LogDpH=7.4” value in data set [2] is −2.30. Further, the in vitro stability result in data set [3] is “stable over 60 min”. In addition, the “HSA HPAC” value in data set [4] (setting [20]) is listed as 84.8%.
On to `CC(=O)N[C@@H]1[C@@H](O)[C@H](O)[C@@H](CO)O[C@H]1NC(=O)C[C@H](NC(=O)C[N+](C)(C)Cc1ccc([Si](F)(C(C)(C)C)C(C)(C)C)cc1)C(=O)N[C@@H](CC(=O)O)C(=O)N[C@@H](CC(=O)O)C(=O)NCCOCCOCC(=O)N[C@H](Cc1ccccc1)C(=O)N[C@H]1CSSC[C@@H](C(=O)N[C@H](C(=O)O)[C@@H](C)O)NC(=O)[C@H]([C@@H](C)O)NC(=O)[C@H](CCCCN)NC(=O)[C@@H](Cc2c[nH]c3ccccc23)NC(=O)[C@H](Cc2ccc(O)cc2)NC1=O` [[^nat/18F]SiTATE, SiFAlin-Asn(Ac-NHβGlc)Asp2-PEG1-TATE, reference compound], for which the tissue uptake at 1 h in data set [1] (setting [6]) was determined as 1.89 ± 0.37 %ID/g; in data set [1] (setting [7]) it was 0.81 ± 0.11 %ID/g; in data set [1] (setting [8]), 1.54 ± 0.34 %ID/g; in data set [1] (setting [9]), 0.47 ± 0.06 %ID/g; in data set [1] (setting [10]) it was 1.67 ± 0.21 %ID/g; in data set [1] (setting [11]), 16.3 ± 1 %ID/g. The tissue uptake at 1 h in data set [1] (setting [12]) stood at 1.97 ± 0.25 %ID/g; in data set [1] (setting [13]), 3.38 ± 0.62 %ID/g; in data set [1] (setting [14]), 0.15 ± 0.02 %ID/g; in data set [1] (setting [15]) it was 8.94 ± 1.98 %ID/g; in data set [1] (setting [16]), 0.66 ± 0.08 %ID/g; in data set [1] (setting [17]) it was 6.75 ± 0.58 %ID/g. Also, the tissue uptake at 1 h in data set [1] (setting [18]) came out at 22.7 ± 2.68 %ID/g. Further, the Internalization with AR42J cells was 236%. Also, the “LogDpH=7.4” value in data set [2] was −1.27. Moreover, the “HSA HPAC” value in data set [4] (setting [20]) is recorded as 86.8%.
As to `C[C@@H](O)[C@H](NC(=O)[C@@H]1CSSC[C@H](NC(=O)[C@@H](Cc2ccccc2)NC(=O)CN2CCN(CC(=O)O)CCN(CC(=O)O)CCN(CC(=O)O)CC2)C(=O)N[C@@H](Cc2ccc(O)cc2)C(=O)N[C@H](Cc2c[nH]c3ccccc23)C(=O)N[C@@H](CCCCN)C(=O)N[C@@H]([C@@H](C)O)C(=O)N1)C(=O)O` [[^nat/68Ga]DOTA-TATE, metal not drawn, reference compound], in data set [5], the “LogDpH=7.4” value is −3.69 [24]. Moreover, the Internalization with AR42J cells was determined as 570%. Also, in data set [4], the “HSA HPAC” value was found to be 88.9%.

These data come from publication PMC12920295, “Novel radiohybrid PET-Tracers for SST2-targeted imaging of neuroendocrine tumors” (European Journal of Nuclear Medicine and Molecular Imaging, 2025).
